Test results: patent US11213590B2, “SSTR-targeted conjugates and particles and formulations thereof” (priority 2016, dated 2022)

Legend:
[1] = Conversion of impurities back into Conjugate 57 in acetate buffer; type: physicochemical
Method: Two impurities present in Conjugate 57 with RRT at 1.69 and 1.70, referred to herein as Impurity A and B respectively, were identified as Conjugate 57 adducts. […] The rate of conversion of these two compounds back into Conjugate 57 is dependent on temperature. Data are provided in Table 11A and Table 11B showing this conversion at room temperature and 40° C.

SSTR4 = SSTR4 (Homo sapiens, UniProt P31391); assay: Affinity profile (half-maximal inhibitory concentration), SSTR4; type: binding
SSTR4, sequence (P31391 whole entry): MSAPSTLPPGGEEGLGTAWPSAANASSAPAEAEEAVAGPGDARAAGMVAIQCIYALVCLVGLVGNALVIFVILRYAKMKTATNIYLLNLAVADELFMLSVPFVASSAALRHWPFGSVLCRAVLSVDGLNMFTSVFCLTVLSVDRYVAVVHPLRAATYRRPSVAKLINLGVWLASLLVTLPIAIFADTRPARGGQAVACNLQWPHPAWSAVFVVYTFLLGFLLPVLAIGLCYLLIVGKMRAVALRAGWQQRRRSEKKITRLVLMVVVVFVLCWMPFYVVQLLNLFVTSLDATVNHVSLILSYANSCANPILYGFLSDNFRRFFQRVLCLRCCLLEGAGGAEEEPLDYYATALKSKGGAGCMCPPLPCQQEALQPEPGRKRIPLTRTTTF
From the text: DOTATE, also known as DOTA-TATE or DOTA-octreotate, comprises an amide of the acid DOTA, which connects a radionuclide and (Tyr3)-octreotate, a derivative of octreotide. DOTATOC, also known as edotreotide, SMT487, or (DOTA^0-Phe^1-Tyr^3)octreotide, is also an octreotide derivative which can be bound to radionuclides for diagnosis and treatment.

HCC-33 = assay: Inhibition of proliferation, CellTiter-Glo, HCC-33; type: cell-based, human
Method: The purpose of this study was to determine the receptor-dependent inhibition of proliferation in vitro by the somatostatin targeting conjugate Conjugate 57 and determine the sensitivity to DM1 in the human SSTR2 expressing cancer cell lines: NCI-H69, NCI-H82, NCI-H727 and HCC-33. Cells were incubated with Conjugate 57 for 6 hours, in the presence or absence of an excess of octreotide, a somatostatin analogue. A three-fold serial dilution of Conjugate 57 was used for a total of ten concentration points. After treatment, cells were washed, incubated for an additional period of time, either 72 or 96 hours and proliferation was measured using the CellTiter-Glo® Luminescent Cell Viability Assay. The IC50 of Conjugate 57 was used to determine the inhibiting activity in proliferation assays. To determine DM1 sensitivity a similar method to the Conjugate 57 assay was employed with the additional incubation time points of 30 minutes, 1, 2, and 4 hours and the exclusion of the pre-treatment with octreotide. DM1 effect from the most to least sensitive cell line was determined to be: NCI-H69>HCC-33>NCI-H82>NCI-H727 (Table 5B). […] The addition of excess octreotide (100 μM) competes with Conjugate 57 for binding to the SSTR2 receptor. […] In the NCI-H69 experiments, pre-incubation with an excess of octreotide modestly diminished the activity of Conjugate 57 by 1.6 and 2.4 fold, depending on the assay conditions. In the HCC-33 cell line, activity of Conjugate 57 was 3.2 (±1.4) times higher when dosed alone, compared to when the cells were pre-incubated with octreotide. The small but measureable changes in Conjugate 57 activity in the presence of excess octreotide seen in the NCI-H69 and HCC-33 cell lines supports the receptor dependence of the Conjugate 57 antiproliferative effect seen in vitro. In summary, although all the cell lines tested in these experiments express the SSTR2 protein, they have different levels of sensitivity to the Conjugate 57 conjugate of which the DM1 sensitivity may be a contributing factor.

NCI-H69 xenograft = assay: NCI-H69 lung xenograft efficacy, formulations and schedules; type: in vivo, mice; settings: for MTV (Mean Tumor Volume): total dose 2.0 mg/kg; for MTV (Mean Tumor Volume) / mice with complete tumor regression: Day 21
Method: A further NCI-H69 study design included Conjugate 57 dosed iv at 1.0 mg/kg formulated in propylene glycol (PG), 1.0 mg/kg formulated in Solutol HS15, 0.5 mg/kg formulated in Solutol HS15 dosed twice per week, and 0.33 mg/kg formulated in Solutol HS15 dosed three times per week. A comparator group was dosed with SOC cisplatin dosed iv at 5.0 mg/kg once per week/etoposide dosed ip at 8.0 mg/kg three times per week over two weeks. A negative control vehicle was dosed with the Solutol HS 15 vehicle. All groups contained 10 animals.

[2] = test system: HCC-33 (small cell lung cancer) xenograft; assay: HCC-33 xenograft efficacy; type: in vivo
Method: HCC-33 (small cell lung cancer) xenograft was chosen to study efficacy of Conjugate 57. In some groups, Conjugate 57 was given at 1.0 mg/kg, 0.5 mg/kg or 0.33 mg/kg every week for 30 days, a total of four doses for each animal. In some other groups, Conjugate 57 was also given at 0.5 mg/kg or 0.25 mg/kg twice a week for 30 days, a total of 8 total doses for each animal.

COc1cc2cc(c1Cl)N(C)C(=O)C[C@H](OC(=O)[C@H](C)N(C)C(=O)CCSSC[C@H](NC(=O)[C@@H]1CSSC[C@H](NC(=O)[C@H](N)Cc3ccccc3)C(=O)N[C@@H](Cc3ccc(O)cc3)C(=O)N[C@H](Cc3c[nH]c4ccccc34)C(=O)N[C@@H](CCCCN)C(=O)N[C@@H]([C@@H](C)O)C(=O)N1)C(N)=O)[C@]1(C)O[C@H]1[C@H](C)[C@@H]1C[C@@](O)(NC(=O)O1)[C@H](OC)/C=C/C=C(\C)C2 [Conjugate 57]
Total (sum of Conjugate 57 and impurities A and B) ([1]; 40° C., 0 hr): 98.6% | content during conversion of impurities ([1]; 40° C., 0 hr): 94.6% | Total (sum of Conjugate 57 and impurities A and B) ([1]; 40° C., 1.4 hr): 98.7% | content during conversion of impurities ([1]; 40° C., 1.4 hr): 97.9% | Total (sum of Conjugate 57 and impurities A and B) ([1]; 40° C., 8.4 hr): 98.8% | content during conversion of impurities ([1]; 40° C., 8.4 hr): 98.5% | Total (sum of Conjugate 57 and impurities A and B) ([1]; room temperature, 0 hr): 98.6% | content during conversion of impurities ([1]; room temperature, 0 hr): 94.6% | Total (sum of Conjugate 57 and impurities A and B) ([1]; room temperature, 9.0 hr): 98.7% | content during conversion of impurities ([1]; room temperature, 9.0 hr): 97.8% | Total (sum of Conjugate 57 and impurities A and B) ([1]; room temperature, 11.6 hr): 98.8% | content during conversion of impurities ([1]; room temperature, 11.6 hr): 98.1% | Total (sum of Conjugate 57 and impurities A and B) ([1]; room temperature, 14.8 hr): 98.8% | content during conversion of impurities ([1]; room temperature, 14.8 hr): 98.3% | Total (sum of Conjugate 57 and impurities A and B) ([1]; room temperature, 16.7 hr): 98.8% | content during conversion of impurities ([1]; room temperature, 16.7 hr): 98.3% | IC50 (SSTR4): > 1000 nM | activity dosed alone compared to pre-incubation with octreotide (HCC-33): 3.2 (±1.4) times higher | IC50 (HCC-33; 5,000 cells/well, assay duration 72 h (repeat experiments), read-out: Inhibition of Proliferation IC50 Without Octreotide): 230 nM | MTV (Mean Tumor Volume) (NCI-H69 xenograft; 0.33 mg/kg iv in Solutol HS15, 3 doses per week): 330 mm3 | mice with complete tumor regression (NCI-H69 xenograft; 0.33 mg/kg three times per week in Solutol HS15): no mice having complete tumor regressions | MTV (Mean Tumor Volume) (NCI-H69 xenograft; 0.5 mg/kg iv in Solutol HS15, 2 doses per week): 105 mm3 | mice with complete tumor regression (NCI-H69 xenograft; 0.5 mg/kg twice weekly in Solutol HS15, 10 animals): 1/10 | mice with complete tumor regression (NCI-H69 xenograft; 1.0 mg/kg in PG, 10 animals): 2/10 | mice with complete tumor regression (NCI-H69 xenograft; 1.0 mg/kg in Solutol HS15, 10 animals): 3/10 | MTV (Mean Tumor Volume) (NCI-H69 xenograft; 1.0 mg/kg iv in PG, 1 dose per week): 178 mm3 | MTV (Mean Tumor Volume) (NCI-H69 xenograft; 1.0 mg/kg iv in Solutol HS15, 1 dose per week): 55 mm3 | adverse effects with health observations (NCI-H69 xenograft; NCI-H69 xenograft): No adverse effects | weight loss (NCI-H69 xenograft; NCI-H69 xenograft, all Conjugate 57 groups): No weight loss | TGI % ([2]; 0.25 mg/kg 2x/wk (8 doses), Day 4): −12.5% | TGI % ([2]; 0.25 mg/kg 2x/wk (8 doses), Day 8): 50.4% | TGI % ([2]; 0.25 mg/kg 2x/wk (8 doses), Day 11): 67.3% | TGI % ([2]; 0.25 mg/kg 2x/wk (8 doses), Day 15): 85.8% | TGI % ([2]; 0.25 mg/kg 2x/wk (8 doses), Day 18): 92.3% | TGI % ([2]; 0.25 mg/kg 2x/wk (8 doses), Day 22): 95.8% | TGI % ([2]; 0.25 mg/kg 2x/wk (8 doses), Day 25): 97.2% | TGI % ([2]; 0.25 mg/kg 2x/wk (8 doses), Day 29): 97.8% | TGI % ([2]; 0.33 mg/kg every week (4 doses), Day 4): 2.1% | TGI % ([2]; 0.33 mg/kg every week (4 doses), Day 8): 34.2% | TGI % ([2]; 0.33 mg/kg every week (4 doses), Day 11): 48% | TGI % ([2]; 0.33 mg/kg every week (4 doses), Day 15): 62.4% | TGI % ([2]; 0.33 mg/kg every week (4 doses), Day 18): 73.8% | TGI % ([2]; 0.33 mg/kg every week (4 doses), Day 22): 79% | TGI % ([2]; 0.33 mg/kg every week (4 doses), Day 25): 83.4% | TGI % ([2]; 0.33 mg/kg every week (4 doses), Day 29): 78.5% | TGI % ([2]; 0.5 mg/kg 2x/wk (8 doses), Day 4): 0.5% | TGI % ([2]; 0.5 mg/kg 2x/wk (8 doses), Day 8): 61.6% | TGI % ([2]; 0.5 mg/kg 2x/wk (8 doses), Day 11): 78.3% | TGI % ([2]; 0.5 mg/kg 2x/wk (8 doses), Day 15): 91.8% | TGI % ([2]; 0.5 mg/kg 2x/wk (8 doses), Day 18): 96.2% | TGI % ([2]; 0.5 mg/kg 2x/wk (8 doses), Day 22): 97.6% | TGI % ([2]; 0.5 mg/kg 2x/wk (8 doses), Day 25): 99.1% | TGI % ([2]; 0.5 mg/kg 2x/wk (8 doses), Day 29): 99.2% | TGI % ([2]; 0.5 mg/kg every week (4 doses), Day 4): 1.6% | TGI % ([2]; 0.5 mg/kg every week (4 doses), Day 8): 60.3% | TGI % ([2]; 0.5 mg/kg every week (4 doses), Day 11): 68.8% | TGI % ([2]; 0.5 mg/kg every week (4 doses), Day 15): 82.7% | TGI % ([2]; 0.5 mg/kg every week (4 doses), Day 18): 87.1% | TGI % ([2]; 0.5 mg/kg every week (4 doses), Day 22): 91.1% | TGI % ([2]; 0.5 mg/kg every week (4 doses), Day 25): 93.6% | TGI % ([2]; 0.5 mg/kg every week (4 doses), Day 29): 89.5% | TGI % ([2]; 1.0 mg/kg every week (4 doses), Day 4): 25.8% | TGI % ([2]; 1.0 mg/kg every week (4 doses), Day 8): 69.9% | TGI % ([2]; 1.0 mg/kg every week (4 doses), Day 11): 84.4% | TGI % ([2]; 1.0 mg/kg every week (4 doses), Day 15): 93.6% | TGI % ([2]; 1.0 mg/kg every week (4 doses), Day 18): 97.4% | TGI % ([2]; 1.0 mg/kg every week (4 doses), Day 22): 99.2% | TGI % ([2]; 1.0 mg/kg every week (4 doses), Day 25): 99.8% | TGI % ([2]; 1.0 mg/kg every week (4 doses), Day 29): 99.7% | Body weights ([2]; HCC-33 xenograft, all groups): good | tolerability of multiple doses ([2]; HCC-33 xenograft, weekly or twice weekly dosing for 30 days): well tolerated
